Data as given in paper PMC6687188, “Novel lactate dehydrogenase inhibitors with in vivo efficacy against Cryptosporidium parvum” (PLoS Pathogens, 2019).

Biological target: recombinant CpLDH protein (Cryptosporidium parvum, UniProt Q9GT92, F198L/K295E/R251K)

Row | Structure (SMILES) | MEAN CpLDH INHIBITION (%)
1 | C=C(CN(C)C)C(=O)c1ccccc1Cl.Cl [NSC382007] | -43.42
2 | Br.CCN(CC)CC(C)(C)C(=O)/C=C/c1ccc(C)cc1 [NSC382766] | -40.98
3 | O=C1C=Cc2ncccc2C1=O [NSC400944] | -2.52
4 | CC1=C2C(=CC(C)(C)[C@@H]2O)C(=O)[C@](C)(O)C12CC2 [NSC400978] | -79.24
5 | COc1cc([C@@H]2c3cc4c(cc3C[C@H]3COC(=O)[C@@H]32)OCO4)cc(OC)c1OC [NSC403148] | -8.59
6 | C[C@@H]1CC[C@H]2C(C)(C)[C@H]3C[C@@]12CC[C@@]3(C)O [NSC403883] | -51.63
7 | N#CC(=C1C=CC(=NO)C=C1)c1ccc(Cl)cc1 [NSC405158] | -30.77
8 | OCC1OC(n2cnc3c(=S)nc[nH]c32)C(O)C1O (stereo not shown) [NSC406021] | -17.89
9 | CC(=O)OC1CC(n2cc(F)c(=O)[nH]c2=O)OC1CO (stereo not shown) [NSC407335] | -11.80
10 | C[C@]12CC[C@H](O)C[C@H]1CC[C@@H]1[C@@H]2CC[C@]2(C)[C@@H](C3=CC(=O)OC3)CC[C@]12O [NSC407806] | -16.59
11 | Cc1cc(O)c2c(c1)C(=O)c1cc(O)cc(O)c1C2=O [NSC408120] | -6.79
12 | CC(C)c1ccc2nc3ccc(C(=O)NCCN(C)C)cn3c(=O)c2c1 [NSC600305] | -31.37
13 | CCCCCn1cc2c3c(cccc31)C1C=C(C)CN(C)[C@@H]1C2.Cc1ccc(C(=O)OC(C(=O)O)C(OC(=O)c2ccc(C)cc2)C(=O)O)cc1 (stereo not shown) [NSC600681] | -36.35
14 | CCN(CC)CCOc1ccccc1/C=C/c1noc2ccccc12.Cl [NSC601101] | -6.25
15 | Cc1nc2c(nc1C)C(=O)c1ccccc1C2=O [NSC602617] | -40.33
16 | CN(C)c1cccc(F)c1C(=O)NC(=O)Nc1ccc(Cl)cc1 [NSC603108] | -29.93
17 | Cc1ccc(S(=O)(=O)[O-])cc1.Cc1ccc(S(=O)(=O)[O-])cc1.Cn1c(-c2ccc(/C=C/C=N/NC(=O)c3ccc(C(=O)N/N=C/C=C/c4ccc(-c5c[n+]6ccccc6n5C)cc4)cc3)cc2)c[n+]2ccccc12 [NSC603169] | -164.45
18 | C[Si](C)(CN)CN.[Cl][Pt][Cl] [NSC603577] | -0.38
19 | Cc1ccc(S(=O)(=O)NC(=O)NC2=NC(C)(C)N(c3ccc(Cl)c(Cl)c3)C(N)=N2)cc1 [NSC603624] | -12.73
20 | O=c1[nH]c2ccc(O)cc2o1 [NSC603719] | -2.52
21 | C[C@H](CSC(=O)c1ccccc1)C(=O)N1c2ccccc2C[C@H]1C(=O)O [NSC604535] | -8.81

Row | Structure (SMILES) | MEAN CpLDH INHIBITION (%)
22 | Cl.Nc1ccc2cc3ccc(N)cc3nc2c1 [NSC605756] | -35.77
23 | CC(C)(C)OC(=O)NC(Cc1ccccc1)C(=O)OCN1C(=O)C2C3C=CC(C2C1=O)C1C2C(=O)N(COC(=O)C(Cc4ccccc4)NC(=O)OC(C)(C)C)C(=O)C2C31 (stereo not shown) [NSC607316] | -7.22
24 | O=[N+]([O-])c1ccc(-c2cn(-c3ccc(Cl)cc3)cn2)cc1 [NSC610744] | -19.53
25 | COc1cc(C(O)CCBr)c(OC)cc1C (stereo not shown) [NSC611750] | -11.25
26 | CC(=O)Oc1ccc(C(c2ccc(OC(C)=O)cc2)c2ccccn2)cc1 [NSC614826] | -3.85
27 | CC1(C)C(O)OC(O)C1(C)C (stereo not shown) [NSC614928] | -7.87
28 | C=C(C#N)C(=O)OCC(CC)CC.C=C(C#N)C(=O)OCC(CC)CC.CS(C)=O.CS(C)=O.Nc1c(N=Nc2ccc(-c3ccc(N=Nc4cc(S(=O)(=O)[O-])c5ccccc5c4N)cc3)cc2)cc(S(=O)(=O)[O-])c2ccccc12.[Pt+2] [NSC615593] | -2.09
29 | OC(CBr)C(O)C(O)C(O)CBr (stereo not shown) [NSC616232] | -42.37
30 | CC(C)(C)[Si](C)(C)OCC1CCC(n2cnc3c(N)ncnc32)O1 (stereo not shown) [NSC616355] | -24.91
31 | CCCCCC/C=C\CCCCCCCCCc1cccc(OC)c1O [NSC617540] | -6.79
32 | COc1ccc2c(c1)C=C([N+](=O)[O-])C(C1OC(C)(C)OC1C1COC(C)(C)O1)O2 (stereo not shown) [NSC618261] | -65.69
33 | O=C1C(Br)=C(Br)C(=O)c2ccccc21 [NSC618332] | -7.70
34 | C/C=C(\CCC1NCCc2c1[nH]c1ccccc21)[Si](C)(C)C (stereo not shown) [NSC619165] | -14.52
35 | O=C([O-])c1cc(I)cc(I)c1[OH2+].O=C([O-])c1cc(I)cc(I)c1[OH2+].[Mn+2] [NSC619907] | -115.80
36 | COC(=O)C[S+]([O-])c1ccccc1 (stereo not shown) [NSC620050] | -37.27
37 | O=C1CC[C@H](NC(=O)Cc2ccccc2)C(=O)N1 [NSC620261] | -132.95
38 | N#CCCN(CCC#N)c1ccc(C=Nc2ccc(F)cc2)cc1 [NSC620277] | -46.45
39 | CCOC(=O)c1ccc(N=Cc2ccc(N(CCC#N)CCC#N)cc2)cc1 [NSC620279] | -17.13
40 | Cc1c(N=Cc2ccc(N(CCC#N)CCC#N)cc2)c(=O)n(-c2ccccc2)n1C [NSC620280] | -51.47
41 | C=C1C(=O)C23CC[C@@H]4C(C)(C(=O)OC)CCCC4(C)[C@@H]2CCC1(O)C3 (stereo partly shown) [NSC620358] | -24.86
42 | CC1=NN(C(=O)c2ccncc2)C(=O)C1N=Nc1ccc(F)cc1 (stereo not shown) [NSC621094] | -33.52

Row | Structure (SMILES) | MEAN CpLDH INHIBITION (%)
43 | Cc1cc2c(cc1C)[n+](=O)c(C(=O)/C=C/c1ccccc1[N+](=O)[O-])c(C)n2[O-] [NSC621486] | -0.42
44 | C[N+](C)(C)CC1CCCC1=O.[I-] (stereo not shown) [NSC621889] | -0.31
45 | [Mo] [NSC622116] | -10.74
46 | [Mo] [NSC622124] | 0.01
47 | COc1ccc(-n2/c(=N/C(=S)N(C)C)ss/c2=N\C(=S)N(C)C)cc1 [NSC622586] | -55.77
48 | CN(C)C(=S)/N=c1\ss/c(=N\C(=S)N(C)C)n1-c1ccc2c(c1)OCO2 [NSC622589] | -7.95
49 | Br.CN(C)c1nc(=NCc2ccco2)ss1 [NSC622608] | -22.44
50 | CCOC(=O)CCc1c(C)c2c(O)cc(O)cc2oc1=O [NSC622616] | -39.56
51 | O=[N+]([O-])c1cc(C(F)(F)F)cc([N+](=O)[O-])c1CCl [NSC622627] | -26.97
52 | NC(=O)c1c([N+](=O)[O-])cc(C(F)(F)F)cc1[N+](=O)[O-] [NSC622640] | -12.99
53 | CCOC(=O)/N=C(\N)SCc1ccccc1 [NSC622684] | -0.38
54 | CC1=C/C(=C2/N=C(N(C)C)SS2)C(C)=N1.[O-][Cl+3]([O-])([O-])O [NSC622690] | -0.50
55 | Cn1ncc2cc3c(Nc4ccc(Cl)cc4)cccc3nc21 [NSC622732] | -35.66
56 | Cc1cc(Cl)ccc1N1C(=O)C(=O)C(c2nc3ccccc3o2)C(=O)C1=O [NSC623051] | -30.82
57 | COc1ccc2nc(NC(=O)C(=O)CC(=O)c3ccc(Cl)cc3)sc2c1 [NSC623059] | -31.35
58 | O=C(Nc1ccccc1-c1nn(C(=S)Nc2ccccc2)c(=S)n(C(=S)Nc2ccccc2)c1=O)C(F)(F)F [NSC623093] | -49.57
59 | CN(C)c1ccc(/C=c2/sc3nc(=O)c(-c4ccccc4NC(=O)C(F)(F)F)nn3c2=O)cc1 [NSC623095] | -151.18
60 | CC(=O)OCc1c2ccccc2c(C)c2c1cc(F)c1ccccc12 [NSC623135] | -28.47
61 | COC(=O)c1ccccc1OCc1cc(=O)oc2ccc(C)cc12 [NSC623637] | -23.29
62 | CCOC(=O)C1=C(O)CSC1=Nc1ccc(N=C2SCC(O)=C2C(=O)OCC)cc1 [NSC623746] | -45.42
63 | Cc1ccc(S(=O)(=O)SC/C=C/CSS(=O)(=O)c2ccc(C)cc2)cc1 [NSC624158] | -8.09

Row | Structure (SMILES) | MEAN CpLDH INHIBITION (%)
64 | O=S(=O)(O)SC/C=C\CSS(=O)(=O)O.[Na+] [NSC624161] | -27.85
65 | Cl.NCCSSCc1ccccc1CSSCCN [NSC624169] | -25.23
66 | CC12CC(Br)(Br)C(=O)C3C1CCCC32 [NSC624358] | -23.30
67 | Cc1[nH]c(=O)nc(N/N=C/c2ccc(Cl)cc2)c1C(=O)Nc1ccc(Cl)cc1 [NSC624947] | -0.76
68 | C=CCOC1OC(CO[Si](C)(C)C(C)(C)C)C(OCc2ccccc2)C(OCc2ccccc2)C1OCc1ccccc1 (stereo not shown) [NSC624953] | -142.25
69 | CCN(CC)CCCNc1ncc(C)c2[nH]c3ccncc3c12.O=C(O)/C=C\C(=O)O [NSC625331] | -26.39
70 | O=c1ncccn1C1OC(CO)C(O)C1F (stereo not shown) [NSC625355] | -50.28
71 | Fc1cccc(Cl)c1C1SCc2nc3ccccc3n21 (stereo not shown) [NSC625483] | -18.24
72 | Fc1cccc(F)c1C1SCc2nc3ccccc3n21 (stereo not shown) [NSC625487] | -32.18
73 | COc1ccc2cccc(C(=N)c3ccc(C)c4c3CCC4)c2c1 [NSC625590] | -11.59
74 | Cc1ccccc1NC(=O)/C=N/O [NSC625639] | -116.71
75 | Cc1cc([N+](=O)[O-])ccc1Nc1cccc(Cl)c1C [NSC625641] | -6.68
76 | C1CN(c2nnc(N3CCC3)nn2)C1 [NSC625748] | -117.70
77 | COc1ccccc1Cc1nc(-c2ccccc2)nn(C2OC(COC(C)=O)C(OC(C)=O)C(OC(C)=O)C2OC(C)=O)c1=S (stereo not shown) [NSC625873] | -25.33
78 | COC1OC(COCc2ccc(Cl)cc2)C(OCc2ccc(Cl)cc2)C1O (stereo not shown) [NSC626120] | -0.60
79 | COc1ccc(C2C(C)C(=O)C(C)C(c3ccc(OC)cc3)N2N=O)cc1 (stereo not shown) [NSC626734] | -0.09
80 | COc1cc2c3c(c1OC)-c1cc4c(cc1CC3(C#N)N(C(=O)c1ccccc1)CC2)OCO4 (stereo not shown) [NSC627666] | -0.33
81 | Cc1ccc(S(=O)(=O)c2ccccc2[N+](=O)[O-])cc1 [NSC627708] | -13.84
82 | N#CC1(C#N)C2C=CC(c3coc4cccc2c34)C1(C#N)C#N (stereo not shown) [NSC629301] | -23.71
